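48-hour exposure; five concentrations; linearly interpolated endpoints. At the GI50, growth is halved.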 Calls of active or inactive are those of the source. No stated cut-off is given here; in the data, active = GI50 up to about 1.1 µM and inactive = higher.
Assays:
Assay in all cases: NCI-60 cell line screen, 48 h
786-0 = test system: 786-0
A498 = test system: A498
A549 = test system: A549
ACHN = test system: ACHN
CAKI-1 = test system: CAKI-1
CCRF-CEM = test system: CCRF-CEM
COLO 205 = test system: COLO 205
DMS-114 = test system: DMS-114
DMS-273 = test system: DMS-273
EKVX = test system: EKVX
HCC 2998 = test system: HCC 2998
HCT-116 = test system: HCT-116
HCT-15 = test system: HCT-15
HOP-18 = test system: HOP-18
HOP-62 = test system: HOP-62
HOP-92 = test system: HOP-92
HT-29 = test system: HT-29
IGROV-1 = test system: IGROV-1
K562 = test system: K562
KM-20L2 = test system: KM-20L2
KM12 = test system: KM12
LOX IMVI = test system: LOX IMVI
M14 = test system: M14
M19-MEL = test system: M19-MEL
MOLT-4 = test system: MOLT-4
Malme-3M = test system: Malme-3M
NCI-H226 = test system: NCI-H226
NCI-H23 = test system: NCI-H23
NCI-H460 = test system: NCI-H460
OVCAR-3 = test system: OVCAR-3
OVCAR-4 = test system: OVCAR-4
OVCAR-5 = test system: OVCAR-5
OVCAR-8 = test system: OVCAR-8
RPMI-8226 = test system: RPMI-8226
RXF 631 = test system: RXF 631
SF-268 = test system: SF-268
SF-295 = test system: SF-295
SF-539 = test system: SF-539
SK-MEL-28 = test system: SK-MEL-28
SK-MEL-2 = test system: SK-MEL-2
SK-MEL-5 = test system: SK-MEL-5
SK-OV-3 = test system: SK-OV-3
SN12C = test system: SN12C
SNB-19 = test system: SNB-19
SNB-75 = test system: SNB-75
SNB-78 = test system: SNB-78
SW-620 = test system: SW-620
TK-10 = test system: TK-10
U-251 = test system: U-251
UACC-257 = test system: UACC-257
UACC-62 = test system: UACC-62
UO-31 = test system: UO-31
XF498 = test system: XF498

SMILES: O=C1Cc2ccccc2N1/N=C\c1ccc(O)cc1
- GI50 (786-0): > 100 µM (inactive)
- GI50 (A498): > 100 µM (inactive)
- GI50 (A549): 64.9 µM (inactive)
- GI50 (ACHN): 53.7 µM (inactive)
- GI50 (CAKI-1): > 100 µM (inactive)
- GI50 (CCRF-CEM): 11.5 µM (inactive)
- GI50 (COLO 205): > 100 µM (inactive)
- GI50 (DMS-114): 21.8 µM (inactive)
- GI50 (DMS-273): > 100 µM (inactive)
- GI50 (EKVX): 82.2 µM (inactive)
- GI50 (HCC 2998): > 100 µM (inactive)
- GI50 (HCT-116): > 100 µM (inactive)
- GI50 (HCT-15): 91 µM
- GI50 (HOP-18): > 100 µM (inactive)
- GI50 (HOP-62): 49.7 µM (inactive)
- GI50 (HOP-92): > 100 µM (inactive)
- GI50 (HT-29): > 100 µM (inactive)
- GI50 (IGROV-1): > 100 µM (inactive)
- GI50 (K562): 61.4 µM (inactive)
- GI50 (KM-20L2): > 100 µM (inactive)
- GI50 (KM12): > 100 µM (inactive)
- GI50 (LOX IMVI): > 100 µM (inactive)
- GI50 (M14): > 100 µM (inactive)
- GI50 (M19-MEL): > 100 µM (inactive)
- GI50 (MOLT-4): 13.4 µM (inactive)
- GI50 (Malme-3M): > 100 µM (inactive)
- GI50 (NCI-H226): > 100 µM (inactive)
- GI50 (NCI-H23): 71.1 µM (inactive)
- GI50 (NCI-H460): > 100 µM (inactive)
- GI50 (OVCAR-3): > 100 µM (inactive)
- GI50 (OVCAR-4): > 100 µM (inactive)
- GI50 (OVCAR-5): > 100 µM (inactive)
- GI50 (OVCAR-8): > 100 µM (inactive)
- GI50 (RPMI-8226): 58.1 µM (inactive)
- GI50 (RXF 631): > 100 µM (inactive)
- GI50 (SF-268): 50.6 µM (inactive)
- GI50 (SF-295): 77.4 µM (inactive)
- GI50 (SF-539): 95.7 µM (inactive)
- GI50 (SK-MEL-28): > 100 µM (inactive)
- GI50 (SK-MEL-2): > 100 µM (inactive)
- GI50 (SK-MEL-5): 44.1 µM (inactive)
- GI50 (SK-OV-3): > 100 µM (inactive)
- GI50 (SN12C): > 100 µM (inactive)
- GI50 (SNB-19): > 100 µM (inactive)
- GI50 (SNB-75): 18.1 µM (inactive)
- GI50 (SNB-78): > 100 µM (inactive)
- GI50 (SW-620): > 100 µM (inactive)
- GI50 (TK-10): > 100 µM (inactive)
- GI50 (U-251): > 100 µM (inactive)
- GI50 (UACC-257): 47 µM (inactive)
- GI50 (UACC-62): > 100 µM (inactive)
- GI50 (UO-31): 45.1 µM (inactive)
- GI50 (XF498): > 100 µM (inactive)

— ChEMBL document CHEMBL1201862, “PubChem BioAssay data set” (2004)
